Reference: article PMC9137512 (Antibiotics, 2022)

Experiments:
[1] = Free concentration and protein binding in spiked human serum samples (Table S5); details: for fraction unbound: human, serum, PB
Description: (§1) Subsequently, samples were mixed for 10 s, stored in an ultrasonic bath for 10 min at 40 °C, then centrifuged at 8000× g for 5 min. Next, 100 µL of the resulting supernatant was further diluted with 500 µL water with 0.1% formic acid. […] Details are described in the Supplementary Materials (Figures S1–S3).
Table S5. […] In order to evaluate the
(a) Spiked human serum samples of 14 patients (8 critically ill and 6 non-critically ill) after calibration with sheep serum.
(b) Spiked human serum samples of 9 critically ill patients and 6 healthy volunteers after calibration with human serum.

[2] = cited from earlier work
Source text: Efficacy is associated with the area under the concentration-time curve (AUC) divided by the minimal inhibitory concentration (MIC). […] Standard in vitro me ...

[3] = Stability of aqueous stock solution; type: physicochemical; details: HPLC-UV
Source text: (§2) For stability testing, two samples were thawed out and subsequently analyzed. Stability was defined by the time for which samples remained a concentration of > 90% of their baseline concentrations.

clinical = details: for level at 192 h: iv
Description: The samples were subsequently analyzed according to the described method. […] The patients’ estimated glomerular filtration (eGFR) was calculated by the chronic kidney disease epidemiology collaboration equation (CKD–EPI). The AUC was calculated using the trapezoidal rule.
as §1
An aliquot of 20 µL was injected onto the HPLC–UV system equipped with a diode array detector (Nexera-I 3D plus, Shimadzu, Duisburg, Germany). Chromatographic analysis was performed using a reversed phase column Shim-pack XR-ODS III with 2.2 µm particle size (150 mm × 2 mm, Shimadzu, Duisburg, Germany) in combination with a column guard (Shim-pack GISS-H (G) C18, 3 µm; 10 mm × 2.1 mm, Shimadzu, Duisburg, Germany). Separation was performed using a gradient of 0.1% formic acid in acetonitrile and 0.1% formic acid in water with a flow rate of 0.35 mL/min. The autosampler and column were set at temperatures of 10 °C and 45 °C, respectively.

[4] = Stability of dalbavancin in human serum; details: serum samples, HPLC-UV
Source text: as §2

[5] = S5b, serum of patient 17 (critically ill) spiked 200 mg/L, measured c 222 mg/L, calibration with human serum
[6] = S5b, serum of patient 18 (critically ill) spiked 50 mg/L, measured c 57.6 mg/L, calibration with human serum
[7] = S5b, serum of patient 18 (critically ill) spiked 200 mg/L, measured c 242 mg/L, calibration with human serum
[8] = S5b, serum of patient 19 (critically ill) spiked 50 mg/L, measured c 51.1 mg/L, calibration with human serum
[9] = S5b, serum of patient 19 (critically ill) spiked 200 mg/L, measured c 197 mg/L, calibration with human serum
[10] = S5b, serum of patient 20 (critically ill) spiked 50 mg/L, measured c 54.5 mg/L, calibration with human serum
[11] = S5b, serum of patient 20 (critically ill) spiked 200 mg/L, measured c 254 mg/L, calibration with human serum
[12] = S5b, serum of patient 21 (critically ill) spiked 50 mg/L, measured c 55.2 mg/L, calibration with human serum
[13] = S5b, serum of patient 23 (critically ill) spiked 50 mg/L, measured c 56.0 mg/L, calibration with human serum

SMILES: CN[C@H]1C(=O)N[C@@H]2Cc3ccc(cc3)Oc3cc4cc(c3O[C@@H]3O[C@H](C(=O)O)[C@@H](O)[C@H](O)[C@H]3NC(=O)CCCCCCCCC(C)C)Oc3ccc(cc3Cl)[C@@H](O)[C@@H]3NC(=O)[C@H](NC(=O)[C@@H]4NC(=O)[C@@H](NC2=O)c2cc(cc(O)c2Cl)Oc2cc1ccc2O)c1ccc(O)c(c1)-c1c(O[C@H]2O[C@H](CO)[C@@H](O)[C@H](O)[C@@H]2O)cc(O)cc1[C@@H](C(=O)NCCCN(C)C)NC3=O [dalbavancin, Dalbavancin]
- fc ([1]; S5b, serum of patient 16 (critically ill) spiked 200 mg/L, measured c 233 mg/L, calibration with human serum): 12.1 mg/L
- fc ([1]; S5b, serum of patient 17 (critically ill) spiked 50 mg/L, measured c 52.5 mg/L, calibration with human serum): < 1.0 mg/L
- fc [1, 5]: 8.3 mg/L
- fc [1, 6]: 1.3 mg/L
- fc [1, 7]: 8.8 mg/L
- fc [1, 8]: 1.2 mg/L
- fc [1, 9]: 7.1 mg/L
- fc [1, 10]: 1.7 mg/L
- fc [1, 11]: 8.2 mg/L
- fc [1, 12]: 1.6 mg/L
- fc ([1]; S5b, serum of patient 21 (critically ill) spiked 200 mg/L, measured c 230 mg/L, calibration with human serum): 11.0 mg/L
- fc ([1]; S5b, serum of patient 22 (critically ill) spiked 50 mg/L, measured c 59.8 mg/L, calibration with human serum): 2.5 mg/L
- fc ([1]; S5b, serum of patient 22 (critically ill) spiked 200 mg/L, measured c 266 mg/L, calibration with human serum): 16.5 mg/L
- fc [1, 13]: 2.2 mg/L
- fc ([1]; S5b, serum of patient 23 (critically ill) spiked 200 mg/L, measured c 233 mg/L, calibration with human serum): 9.6 mg/L
- fraction unbound [1]: 0.05
- fraction unbound ([1]; S5a, serum of patient 1 (critically ill) spiked 50 mg/L, measured c 53.5 mg/L, calibration with sheep serum): 0.03
- fraction unbound ([1]; S5a, serum of patient 1 (critically ill) spiked 200 mg/L, measured c 201 mg/L, calibration with sheep serum): 0.04
- fraction unbound ([1]; S5a, serum of patient 2 (critically ill) spiked 50 mg/L, measured c 53.6 mg/L, calibration with sheep serum): 0.03
- fraction unbound ([1]; S5a, serum of patient 3 (critically ill) spiked 200 mg/L, measured c 209 mg/L, calibration with sheep serum): 0.04
- fraction unbound ([1]; S5a, serum of patient 4 (critically ill) spiked 50 mg/L, measured c 54.2 mg/L, calibration with sheep serum): 0.03
- fraction unbound ([1]; S5a, serum of patient 4 (critically ill) spiked 200 mg/L, measured c 212 mg/L, calibration with sheep serum): 0.04
- fraction unbound ([1]; S5a, serum of patient 5 (critically ill) spiked 50 mg/L, measured c 53.0 mg/L, calibration with sheep serum): 0.04
- fraction unbound ([1]; S5a, serum of patient 6 (critically ill) spiked 50 mg/L, measured c 50.4 mg/L, calibration with sheep serum): 0.03
- fraction unbound ([1]; S5a, serum of patient 8 (critically ill) spiked 50 mg/L, measured c 54.3 mg/L, calibration with sheep serum): 0.03
- fraction unbound ([1]; S5a, serum of patient 8 (critically ill) spiked 200 mg/L, measured c 201 mg/L, calibration with sheep serum): 0.04
- fraction unbound ([1]; S5a, serum of patient 9 (non-critically ill) spiked 200 mg/L, measured c 177 mg/L, calibration with sheep serum): 0.02
- fraction unbound ([1]; S5a, serum of patient 10 (non-critically ill) spiked 200 mg/L, measured c 180 mg/L, calibration with sheep serum): 0.02
- fraction unbound ([1]; S5a, serum of patient 11 (non-critically ill) spiked 200 mg/L, measured c 177 mg/L, calibration with sheep serum): 0.02
- fraction unbound ([1]; S5a, serum of patient 12 (non-critically ill) spiked 200 mg/L, measured c 195 mg/L, calibration with sheep serum): 0.02
- fraction unbound ([1]; S5a, serum of patient 13 (non-critically ill) spiked 50 mg/L, measured c 53.0 mg/L, calibration with sheep serum): 0.02
- fraction unbound ([1]; S5a, serum of patient 13 (non-critically ill) spiked 200 mg/L, measured c 214 mg/L, calibration with sheep serum): 0.03
- fraction unbound ([1]; S5a, serum of patient 14 (non-critically ill) spiked 50 mg/L, measured c 50.0 mg/L, calibration with sheep serum): 0.02
- fraction unbound ([1]; S5a, serum of patient 14 (non-critically ill) spiked 200 mg/L, measured c 208 mg/L, calibration with sheep serum): 0.02
- fraction unbound ([1]; S5b, serum of 24 (healthy volunteer) spiked 50 mg/L, measured c 46.1 mg/L, calibration with human serum): 0.03
- fraction unbound ([1]; S5b, serum of 24 (healthy volunteer) spiked 200 mg/L, measured c 184 mg/L, calibration with human serum): 0.02
- fraction unbound ([1]; S5b, serum of 25 (healthy volunteer) spiked 50 mg/L, measured c 45.8 mg/L, calibration with human serum): 0.03
- fraction unbound ([1]; S5b, serum of 25 (healthy volunteer) spiked 200 mg/L, measured c 197 mg/L, calibration with human serum): 0.03
- fraction unbound ([1]; S5b, serum of 26 (healthy volunteer) spiked 50 mg/L, measured c 52.6 mg/L, calibration with human serum): 0.03
- fraction unbound ([1]; S5b, serum of patient 15 (critically ill) spiked 50 mg/L, measured c 56.7 mg/L, calibration with human serum): 0.03
- fraction unbound ([1]; S5b, serum of patient 16 (critically ill) spiked 50 mg/L, measured c 56.7 mg/L, calibration with human serum): 0.04
- fraction unbound [1, 5]: 0.04
- fraction unbound [1, 6]: 0.03
- fraction unbound [1, 7]: 0.04
- fraction unbound [1, 8]: 0.02
- fraction unbound [1, 9]: 0.04
- fraction unbound [1, 10]: 0.03
- fraction unbound [1, 11]: 0.04
- fraction unbound [1, 12]: 0.03
- fraction unbound [1, 13]: 0.04
- elimination half-life ([2]; approximately): > 14 days
- clearance [2]: 0.05 L/h
- stability time (>90% of baseline concentration) ([3]; frozen at −80 °C): at least 12 months
- stability time (>90% of baseline concentration) ([3]; refrigerated (2–8 °C)): at least 3 months
- Cmax (clinical; human, in vivo, 1500 mg, cmax(d1)): 278000 ng/mL
- level at 192 h (clinical; human, in vivo, 1500 mg, cmin(d8)): 44900 ng/mL
- level at 192 h (clinical; human, in vivo, trough concentrations on day 8 before redosing): 23000 to 44900 ng/mL
- peak concentrations after the initial dosing (clinical; range of three cardiologic patients, total serum): 201 to 278 mg/L
- stability time (>90% of baseline concentration) ([4]; frozen at −20 °C): at least 1 month
- stability time (>90% of baseline concentration) ([4]; frozen at −80 °C): at least 12 months
- stability time (>90% of baseline concentration) ([4]; refrigerated (2–8 °C)): at least 96 h
- stability time (>90% of baseline concentration) ([4]; room temperature): ≥ 48 h
